Test results reported in ChEMBL document CHEMBL1955743, “Potent inhibitors of LpxC for the treatment of Gram-negative infections” (J Med Chem, 2012).
Values after ≈ are worked out from the molar mass of the structure shown.

Experiments:
[1] = tested on: Staphylococcus aureus; test: Antibacterial activity against Staphylococcus aureus ATCC 29213 after 16 to 20 hrs by broth microdilution method; format: functional
[2] = tested on: Escherichia coli; test: Antibacterial activity against Escherichia coli after 16 to 20 hrs by broth microdilution method; format: functional
[3] = tested on: Acinetobacter baumannii; test: Antibacterial activity against Acinetobacter baumannii after 16 to 20 hrs by broth microdilution method; format: functional
[4] = tested on: Pseudomonas aeruginosa; test: Antibacterial activity against Pseudomonas aeruginosa after 16 to 20 hrs by broth microdilution method; format: functional
[5] = tested on: Klebsiella pneumoniae; test: Antibacterial activity against Klebsiella pneumoniae after 16 to 20 hrs by broth microdilution method; format: functional
[6] = tested on: Citrobacter freundii; test: Antibacterial activity against Citrobacter freundii after 16 to 20 hrs by broth microdilution method; format: functional
[7] = tested on: Klebsiella aerogenes; test: Antibacterial activity against Enterobacter aerogenes after 16 to 20 hrs by broth microdilution method; format: functional
[8] = tested on: Pseudomonas aeruginosa; test: Antibacterial activity against Pseudomonas aeruginosa PAO1 after 16 to 20 hrs by broth microdilution method; format: functional
[9] = biological target: T1, UDP-3-O-acyl-N-acetylglucosamine deacetylase (Pseudomonas aeruginosa (strain ATCC 15692 / PAO1 / 1C / PRS 101 / LMG12228), UniProt P47205); test: Inhibition of Pseudomonas aeruginosa LpxC using UDP-3-O-(R-hydroxydecanoyl)-N-acetylglucosamine incubated for 30 mins prior to substrate addition measured after 60 mins by mass spectrophotometry
T1 sequence (P47205 whole entry): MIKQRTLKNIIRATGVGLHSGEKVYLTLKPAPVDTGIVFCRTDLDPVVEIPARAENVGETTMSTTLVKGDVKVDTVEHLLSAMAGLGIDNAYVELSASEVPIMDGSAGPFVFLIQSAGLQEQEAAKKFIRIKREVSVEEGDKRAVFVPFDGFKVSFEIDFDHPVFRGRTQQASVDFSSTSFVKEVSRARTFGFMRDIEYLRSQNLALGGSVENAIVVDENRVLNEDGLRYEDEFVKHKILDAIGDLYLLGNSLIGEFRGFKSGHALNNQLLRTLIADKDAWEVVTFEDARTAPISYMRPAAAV

[10] = tested on: Pseudomonas aeruginosa; test: Antibacterial activity against Pseudomonas aeruginosa clinical isolates after 16 to 20 hrs by broth microdilution method; format: functional

Compound	MIC [1]	MIC [8]	IC50 [9]	other results
C[C@@H](O)[C@H](NC(=O)c1ccc(C#Cc2ccc(CN3CCOCC3)cc2)cc1)C(=O)NO	> 64 µg/mL	1 µg/mL (≈ 2.29 µM)		MIC90 [2]: 0.25 µg/mL (≈ 0.571 µM); MIC90 [3]: > 64 µg/mL; MIC90 [4]: 4 µg/mL (≈ 9.14 µM); MIC90 [5]: 2 µg/mL (≈ 4.57 µM); MIC90 [6]: 0.5 µg/mL (≈ 1.14 µM); MIC90 [7]: 0.5 µg/mL (≈ 1.14 µM)
C[C@@](CCc1ccc(-c2ccc(OCCCC(=O)O)cc2)cc1)(C(=O)NO)S(C)(=O)=O	> 64 µg/mL	8 µg/mL (≈ 17.8 µM)	21.2 nM	
CS(=O)(=O)C(CCc1ccc(-c2ccccc2)cc1)C(=O)NO (racemic)	> 64 µg/mL	1 µg/mL (≈ 3 µM)	13.8 nM	
POLYMYXIN B				MIC50 [10]: 0.5 µg/mL; MIC90 [10]: 1 µg/mL
C[C@@](CCc1ccc(-c2ccc(OCCCN3CCOCC3)cc2)cc1)(C(=O)NO)S(C)(=O)=O	> 64 µg/mL	2 µg/mL (≈ 4.08 µM)		MIC90 [2]: 0.5 µg/mL (≈ 1.02 µM); MIC90 [3]: > 64 µg/mL; MIC90 [4]: 4 µg/mL (≈ 8.15 µM); MIC90 [5]: 4 µg/mL (≈ 8.15 µM); MIC90 [6]: 1 µg/mL (≈ 2.04 µM); MIC90 [7]: 1 µg/mL (≈ 2.04 µM)
C[C@@](CCc1ccc(-c2cccnc2)cc1)(C(=O)NO)S(C)(=O)=O	> 64 µg/mL	4 µg/mL (≈ 11.5 µM)	29.7 nM	
C[C@@](CCc1ccc(-c2ccc(F)cc2)cc1)(C(=O)NO)S(C)(=O)=O	> 64 µg/mL	0.25 µg/mL (≈ 0.684 µM)	1.74 nM	MIC90 [2]: 1 µg/mL (≈ 2.74 µM); MIC90 [3]: 32 µg/mL (≈ 87.6 µM); MIC90 [4]: 1 µg/mL (≈ 2.74 µM); MIC90 [5]: 8 µg/mL (≈ 21.9 µM); MIC90 [6]: 4 µg/mL (≈ 10.9 µM); MIC90 [7]: 2 µg/mL (≈ 5.47 µM)
C[C@@](CCc1ccccc1)(C(=O)NO)S(C)(=O)=O	> 64 µg/mL	16 µg/mL (≈ 59 µM)	> 100 nM	
NCC[C@H](O)C(=O)N[C@@H]1C[C@H](N)[C@@H](O[C@H]2O[C@H](CN)[C@@H](O)[C@H](O)[C@H]2O)[C@H](O)[C@H]1O[C@H]1O[C@H](CO)[C@@H](O)[C@H](N)[C@H]1O [AMIKACIN]				MIC50 [10]: 4 µg/mL (≈ 6.83 µM); MIC90 [10]: 32 µg/mL (≈ 54.6 µM)
C[C@@](CCc1ccc(-c2ccc(C(N)=O)cc2)cc1)(C(=O)NO)S(C)(=O)=O	> 64 µg/mL	2 µg/mL (≈ 5.12 µM)	< 2.47 nM	
CC(CCc1ccc(OCc2ccncc2)cc1)(C(=O)NO)S(C)(=O)=O (racemic)	> 64 µg/mL	4 µg/mL (≈ 10.6 µM)	21.6 nM	
C[C@@](CCc1ccc(-c2ccc3c(c2)OCO3)cc1)(C(=O)NO)S(C)(=O)=O	> 64 µg/mL	0.125 µg/mL (≈ 0.319 µM)	1.2 nM	MIC90 [2]: 0.5 µg/mL (≈ 1.28 µM); MIC90 [3]: > 64 µg/mL; MIC90 [4]: 1 µg/mL (≈ 2.55 µM); MIC90 [5]: 4 µg/mL (≈ 10.2 µM); MIC90 [6]: 2 µg/mL (≈ 5.11 µM); MIC90 [7]: 1 µg/mL (≈ 2.55 µM)
CC(C)(O/N=C(\C(=O)N[C@@H]1C(=O)N2C(C(=O)[O-])=C(C[n+]3ccccc3)CS[C@H]12)c1csc(N)n1)C(=O)O [CEFTAZIDIME]				MIC50 [10]: 16 µg/mL (≈ 29.3 µM); MIC90 [10]: > 64 µg/mL
O=C(O)c1cn(C2CC2)c2cc(N3CCNCC3)c(F)cc2c1=O [CIPROFLOXACIN]	0.25 µg/mL (≈ 0.754 µM)			MIC90 [2]: > 64 µg/mL; MIC90 [3]: 64 µg/mL (≈ 193 µM); MIC90 [4]: 64 µg/mL (≈ 193 µM); MIC90 [5]: 64 µg/mL (≈ 193 µM); MIC90 [7]: 1 µg/mL (≈ 3.02 µM)
COc1ccc(CCC(C)(C(=O)NO)S(C)(=O)=O)cc1 (racemic)	> 64 µg/mL	16 µg/mL (≈ 53.1 µM)	> 100 nM	
CC(CS(=O)(=O)c1ccc(-c2ccccc2)cc1)(C(=O)NO)S(C)(=O)=O (racemic)	> 64 µg/mL	4 µg/mL (≈ 10.1 µM)	11.9 nM	
CC(CCc1ccc(OCc2cc[n+]([O-])cc2)cc1)(C(=O)NO)S(C)(=O)=O (racemic)	> 64 µg/mL	> 64 µg/mL	92.7 nM	
CC(CCc1ccc(-c2ccc(OCCCN)cc2)cc1)(C(=O)NO)S(C)(=O)=O (racemic)	> 64 µg/mL	2 µg/mL (≈ 4.76 µM)	12.7 nM	
CC(CCc1ccc(OCc2ccccc2)cc1)(C(=O)NO)S(C)(=O)=O (racemic)	> 64 µg/mL	2 µg/mL (≈ 5.3 µM)	5.16 nM	
C[C@@](CCc1ccc(-c2ccc(C(=O)O)cc2)cc1)(C(=O)NO)S(C)(=O)=O	> 64 µg/mL	64 µg/mL (≈ 163 µM)	73.6 nM	
C[C@](CCc1ccc(-c2ccccc2)cc1)(C(=O)NO)S(C)(=O)=O	> 64 µg/mL	> 64 µg/mL		
CC(COc1ccc(-c2ccccc2)cc1)(C(=O)NO)S(C)(=O)=O (racemic)	> 64 µg/mL	4 µg/mL (≈ 11.4 µM)	31.4 nM	
C[C@H]1[C@H](NC(=O)/C(=N\OC(C)(C)C(=O)O)c2csc(N)n2)C(=O)N1S(=O)(=O)O [AZTREONAM]				MIC90 [2]: > 64 µg/mL; MIC90 [3]: 32 µg/mL (≈ 73.5 µM); MIC90 [4]: 64 µg/mL (≈ 147 µM); MIC90 [5]: > 64 µg/mL; MIC90 [6]: > 64 µg/mL; MIC90 [7]: 32 µg/mL (≈ 73.5 µM)
COc1ccccc1-c1ccc(CC[C@](C)(C(=O)NO)S(C)(=O)=O)cc1	> 64 µg/mL	1 µg/mL (≈ 2.65 µM)	7.04 nM	
C[C@@](CCc1ccc(-c2ccccc2C(N)=O)cc1)(C(=O)NO)S(C)(=O)=O	> 64 µg/mL	> 64 µg/mL	> 100 nM	
C[C@@](CCc1ccc(-c2cccc(C(N)=O)c2)cc1)(C(=O)NO)S(C)(=O)=O	> 64 µg/mL	32 µg/mL (≈ 82 µM)	27.8 nM	
C[C@@](CCc1ccc(-c2ccc(CN)cc2)cc1)(C(=O)NO)S(C)(=O)=O	> 64 µg/mL	1 µg/mL (≈ 2.66 µM)	12.9 nM	

Second part, led by results:

MIC [1]	MIC [8]	IC50 [9]	Compound	other results
> 64 µg/mL	0.5 µg/mL (≈ 1.23 µM)	1.85 nM	C[C@@](CCc1ccc(-c2ccc(C(=O)CO)cc2)cc1)(C(=O)NO)S(C)(=O)=O	MIC90 [2]: 2 µg/mL (≈ 4.93 µM); MIC90 [3]: > 64 µg/mL; MIC90 [4]: 1 µg/mL (≈ 2.47 µM); MIC90 [5]: 8 µg/mL (≈ 19.7 µM); MIC90 [6]: 4 µg/mL (≈ 9.87 µM); MIC90 [7]: 4 µg/mL (≈ 9.87 µM)
32 µg/mL (≈ 78.1 µM)	64 µg/mL (≈ 156 µM)	> 67.9 nM	CC(CCc1ccc(-c2ccccc2)cc1)(C(=O)NO)S(=O)(=O)c1ccccc1 (racemic)	
32 µg/mL (≈ 87.6 µM)	0.125 µg/mL (≈ 0.342 µM)	1.36 nM	C[C@@](CCc1ccc(-c2ccccc2F)cc1)(C(=O)NO)S(C)(=O)=O	
64 µg/mL (≈ 178 µM)	> 64 µg/mL	> 92.5 nM	O=C(NO)C1(CCc2ccc(-c3ccccc3)cc2)CCCS1(=O)=O (racemic)	
32 µg/mL (≈ 83.8 µM)	0.5 µg/mL (≈ 1.31 µM)	3.54 nM	C[C@@](CCc1ccc(-c2cccc(Cl)c2)cc1)(C(=O)NO)S(C)(=O)=O	
32 µg/mL (≈ 82.2 µM)	8 µg/mL (≈ 20.5 µM)	6.78 nM	CC(C)c1cccc(-c2ccc(CC[C@](C)(C(=O)NO)S(C)(=O)=O)cc2)c1	
16 µg/mL (≈ 41.9 µM)	0.5 µg/mL (≈ 1.31 µM)	< 1.05 nM	C[C@@](CCc1ccc(-c2ccc(Cl)cc2)cc1)(C(=O)NO)S(C)(=O)=O	
32 µg/mL (≈ 69.2 µM)	32 µg/mL (≈ 69.2 µM)	9.49 nM	CC(CCc1ccc(-c2ccc(OCCCNC(=N)N)cc2)cc1)(C(=O)NO)S(C)(=O)=O (racemic)	
64 µg/mL (≈ 169 µM)	4 µg/mL (≈ 10.5 µM)	30.4 nM	C[C@@](CCc1ccc(Sc2ccccc2)cc1)(C(=O)NO)S(C)(=O)=O	
32 µg/mL (≈ 85.2 µM)	8 µg/mL (≈ 21.3 µM)	26.1 nM	CCc1ccccc1-c1ccc(CC[C@](C)(C(=O)NO)S(C)(=O)=O)cc1	
64 µg/mL (≈ 155 µM)	32 µg/mL (≈ 77.4 µM)	22.1 nM	C[C@@](CCc1ccc(-c2cccc(-n3cccn3)c2)cc1)(C(=O)NO)S(C)(=O)=O	
64 µg/mL (≈ 175 µM)	2 µg/mL (≈ 5.47 µM)	9.04 nM	CC(CSc1ccc(-c2ccccc2)cc1)(C(=O)NO)S(C)(=O)=O (racemic)	
64 µg/mL (≈ 180 µM)	4 µg/mL (≈ 11.3 µM)	10.1 nM	CC(CCc1ccc(OC2CCCC2)cc1)(C(=O)NO)S(C)(=O)=O (racemic)	
